Drawing on BindingDB's records for doi:10.7270/Q2RJ4GVG (The Scripps Research Institute Molecular Screening Center, 2007), this text covers EC50 for 26 molecules.

The target of this test is T1, Isoform 2 of Nuclear receptor ROR-alpha (Alpha-2) (Homo sapiens, UniProt P35398).
T1 sequence (P35398 whole entry): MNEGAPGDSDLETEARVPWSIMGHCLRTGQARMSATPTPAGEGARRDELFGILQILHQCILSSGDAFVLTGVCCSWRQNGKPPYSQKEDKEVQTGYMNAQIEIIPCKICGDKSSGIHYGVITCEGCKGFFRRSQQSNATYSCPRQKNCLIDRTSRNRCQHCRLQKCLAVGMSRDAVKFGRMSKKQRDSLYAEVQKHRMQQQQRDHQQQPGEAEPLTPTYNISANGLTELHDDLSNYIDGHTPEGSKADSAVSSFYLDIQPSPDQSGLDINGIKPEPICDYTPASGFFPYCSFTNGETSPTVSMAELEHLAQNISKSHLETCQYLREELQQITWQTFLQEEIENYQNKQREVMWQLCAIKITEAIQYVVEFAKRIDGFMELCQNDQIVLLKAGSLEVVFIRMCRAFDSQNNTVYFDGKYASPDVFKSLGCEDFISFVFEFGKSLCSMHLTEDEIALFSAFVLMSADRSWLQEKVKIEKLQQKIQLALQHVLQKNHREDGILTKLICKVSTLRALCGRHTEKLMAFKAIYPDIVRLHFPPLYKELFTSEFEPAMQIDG
Description: RORA ligand-binding domain transactivation agonists – cell-based, CHO-K1, Gal4-RORA LBD, luciferase luminescence, dose response (AID 681).

[1] abbreviates: inactive by the depositor's call.

The term EC50 denotes the concentration that produces a half-maximal response. A higher EC50 goes with a less potent agent.

SMILES strings stand for the structures.

The molecule `Cn1cccc1C(=O)OCc1csc(-c2ccccc2)n1` [(2-phenyl-1,3-thiazol-4-yl)methyl 1-methylpyrrole-2-carboxylate] displayed an EC50 of 221 nM.

In turn, `CCOC(=O)CSc1nc2cc(OCC)ccc2cc1C#N` [(3-Cyano-7-ethoxy-quinolin-2-ylsulfanyl)-acetic acid ethyl ester] gave an EC50 of 1830 nM.

`CC1=CCC(COC(=O)Nc2ccccc2)CC1` (stereo unspecified) [(4-methylcyclohex-3-en-1-yl)methyl N-phenylcarbamate] gave an EC50 of 1530 nM. This EC50 and that of the molecule before are within 1.5-fold of each other.

`CCN(CC)C(=O)Oc1ccc2c(=O)c(-c3ccccc3)coc2c1` [(4-oxidanylidene-3-phenyl-chromen-7-yl) N,N-diethylcarbamate]: the EC50 is 1240 nM.

In the case of `CCOC(=O)Nc1ccc2c(c1)Nc1ccccc1S2` [(10H-Phenothiazin-2-yl)-carbamic acid ethyl ester], the midpoint of the response, the EC50, lay at 3430 nM.

Turning to `C=CCOc1ccc(C=CC(C)N=O)cc1` (stereo unspecified) [(E)-4-(4-allyloxyphenyl)but-3-en-2-one oxime], the midpoint of the response, the EC50, lay at 1350 nM.

Molecule `CCOc1ccc(C=CC(C)N=O)cc1` (stereo unspecified) [(Z)-4-(4-ethoxyphenyl)-3-buten-2-one oxime] gave an EC50 of 491 nM.

For the molecule `CC(C)CNS(=O)(=O)c1ccc(C(=O)Nc2ccc3c(c2)OCCO3)cc1` [MLS000032888], the EC50 turned out to be 3480 nM. Against the preceding molecule, the EC50 is about 7.1-fold higher.

For the molecule `COc1ccc(C(O)P(=O)(O)CCc2ccccc2)cc1` (stereo unspecified) [MLS000038577], the EC50 was > 99000 nM.

The molecule `COc1ccc(C(=O)n2c(-c3ccco3)nc3ccccc32)cc1` [MLS000039368] yielded an EC50 of 4000 nM.

`COc1ccccc1-c1nnc(NC(C)=O)s1` [MLS000041972]: the EC50 turned out to be 1750 nM.

For `CCn1c(Cn2nnc(-c3ccccc3)n2)nnc1SCC(=O)Nc1ccc(C(C)=O)cc1` [MLS000068275], the 50% effective concentration (EC50) was > 99000 nM.

In the case of `CCOc1ccc2nc(NC(=O)c3cnccn3)sc2c1` [MLS000070707], the EC50 is > 136 nM.

Consider `COc1ccc2nc(NC(=O)CSc3nnc(-c4ccoc4C)n3C)sc2c1` [MLS000073639], for which a half-maximal effect (EC50) was put at 2030 nM. This lies in the single-digit micromolar range.

For the molecule `CCc1nnc2c3cnn(-c4ccccc4)c3ncn12` [MLS000080478], the EC50 was > 3670 nM.

`O=C(NC1CCCC1)c1cc(-c2cccs2)on1` [MLS000087238] came in with an EC50 of 1030 nM.

Turning to `O=C(NCc1cccs1)c1noc2c1CCCC2` [MLS000087354], the EC50 under setting [1] amounted to 10100 nM.

With `Cc1ccc2c(c1)c1c3n2CCCNC3CCC1` (stereo unspecified) [MLS000105423], the EC50 was > 99000 nM.

Regarding `COc1ccc(CCC(=O)Nc2ccc3c(c2)OCCO3)cc1` [MLS000110197], the EC50 was > 99000 nM.

With `CCOc1ccc2nc(N3CCC(C(=O)N4CCN(c5ccccn5)CC4)CC3)sc2c1` [MLS000119552], the EC50 was > 3670 nM.

For `O=C(Nc1nnc(C23CC4CC(CC(C4)C2)C3)s1)c1ccco1` [N-[5-(1-adamantyl)-1,3,4-thiadiazol-2-yl]furan-2-carboxamide], the EC50 came to 317 nM.

Molecule `O=C(Nc1ccc2nc(-c3ccc(Br)o3)[nH]c2c1)c1cccs1` [SMR000046012] returned an EC50 of 4090 nM.

The molecule `O=C(CSc1nc[nH]n1)Nc1nnc(-c2ccccc2)s1` [SMR000091719] returned an EC50 under setting [1] of 12100 nM.

As to `Oc1ccc(Cl)cc1C=Nc1nc2ccccc2[nH]1` [SMR000103225], the EC50 was > 99000 nM.

The molecule `Cc1nc(N=CN(C)C)sc1C(=O)Nc1ccccc1` [SMR000107046] showed an EC50 of 5110 nM.

As to `Cc1c(C(=O)OCC2CCCO2)[nH]c2c1C(=O)CC(c1ccco1)C2` (stereo unspecified) [oxolan-2-ylmethyl 6-(furan-2-yl)-3-methyl-4-oxo-1,5,6,7-tetrahydroindole-2-carboxylate], it took 1670 nM to reach a half-maximal effect (EC50).
